Data on five molecules can be found in ChEMBL document CHEMBL5537120 (Eur J Med Chem, 2024).

Activity calls are given as the source filed them. The calls are words filed in the database; no cut-off is given here. Where a SMILES comes first, the peptide text is derived from it. Bridges are numbered along the chain shown (N, C = ends).

This assay has as its system SARS-CoV-2. The assay is described as follows: Antiviral activity against HIV-1 pseudotyped SARS-CoV-2 Omicron BA.2.75 infected in HEK293T cells harboring ACE2+/NRP1- assessed as reduction in infection rate pretreated with cells for 1 hr followed by viral infection and measured after 2 days by firefly luciferase reporter gene assay. Format: functional, organism-based. The note with it: Severe acute respiratory syndrome coronavirus 2, time 49.0 hrs. (In general: A reporter such as luciferase makes a cellular process visible.)
Consider `CC[C@H](C)[C@@H]1NC(=O)[C@@H]2CCCN2C(=O)[C@H](CO)NC(=O)[C@@H](NC(=O)[C@@H](NC(=O)[C@H](Cc2ccc(O)cc2)NC(=O)[C@H](CCCNC(=N)N)NC(=O)[C@H](CC(=O)O)NC(=O)CN)[C@@H](C)O)CSSC[C@@H](C(=O)N[C@@H](CC(=O)O)C(=O)N[C@@H](CC(C)C)C(=O)NCC(=O)N[C@@H](CC(=O)O)C(=O)N2CCC[C@H]2C(=O)N[C@@H](CCC(=O)O)C(=O)NCC(=O)NCC(=O)NCC(=O)N[C@@H](CCCCN)C(=O)N[C@@H](C)C(=O)N2CCC[C@H]2C(=O)N[C@@H](CCCNC(=N)N)C(=O)N[C@@H](CCCNC(=N)N)C(=O)N[C@@H](C)C(=O)N[C@@H](CCCNC(=N)N)C(=O)O)NC(=O)[C@H](CCCNC(=N)N)NC(=O)[C@H](Cc2c[nH]c3ccccc23)NC(=O)[C@H](Cc2c[nH]c3ccccc23)NC(=O)[C@@H]2CCCN2C(=O)[C@H](Cc2ccccc2)NC(=O)[C@H](CCSC)NC(=O)[C@H](CCCNC(=N)N)NC1=O` (H-GDRYTCSPIRMFPWWRCDLGDPEGGGKAPRRAR-OH; disulfide 6-17), for which the result was Active. The result for `CC(C)C[C@H](NC(=O)[C@H](CC(=O)O)NC(=O)CN)C(=O)N[C@@H](Cc1cnc[nH]1)C(=O)N[C@@H](C)C(=O)N[C@H]1CSSC[C@@H](C(=O)N[C@H](C(=O)N[C@@H](CC(C)C)C(=O)NCC(=O)N[C@@H](CC(=O)O)C(=O)N2CCC[C@H]2C(=O)N[C@@H](CCC(=O)O)C(=O)NCC(=O)NCC(=O)NCC(=O)N[C@@H](CCCNC(=N)N)C(=O)N[C@@H](CO)C(=O)N2CCC[C@H]2C(=O)N[C@@H](CCCNC(=N)N)C(=O)N[C@@H](CCCNC(=N)N)C(=O)N[C@@H](C)C(=O)N[C@@H](CCCNC(=N)N)C(=O)O)[C@@H](C)O)NC(=O)[C@H](C)NC(=O)[C@H](Cc2c[nH]c3ccccc23)NC(=O)[C@H](Cc2c[nH]c3ccccc23)NC(=O)[C@@H]2CCCN2C(=O)[C@H](CC(=O)O)NC(=O)CNC(=O)[C@H](CCCNC(=N)N)NC(=O)[C@H](C(C)C)NC(=O)[C@@H]2CCCN2C(=O)[C@H](CCCNC(=N)N)NC1=O` (H-GDLHACRPVRGDPWWACTLGDPEGGGRSPRRAR-OH; disulfide 6-17) reads “Active”. To `CC(C)C[C@@H]1NC(=O)[C@@H]2CCCN2C(=O)[C@H](CO)NC(=O)[C@@H](NC(=O)[C@H](Cc2cnc[nH]2)NC(=O)[C@H](CO)NC(=O)[C@H](Cc2ccccc2)NC(=O)[C@H](CC(=O)O)NC(=O)CN)CSSC[C@@H](C(=O)N[C@H](C(=O)N[C@@H](Cc2ccc(O)cc2)C(=O)N2CCC[C@H]2C(=O)N[C@@H](CC(=O)O)C(=O)N2CCC[C@H]2C(=O)N[C@@H](CCC(=O)O)C(=O)NCC(=O)NCC(=O)NCC(=O)N[C@@H](CCCCN)C(=O)N2CCC[C@H]2C(=O)N[C@@H](C)C(=O)N[C@@H](CCCNC(=N)N)C(=O)N2CCC[C@H]2C(=O)N[C@@H](C)C(=O)N[C@@H](CCCNC(=N)N)C(=O)O)[C@@H](C)O)NC(=O)[C@H](CCCCN)NC(=O)[C@H](Cc2ccccc2)NC(=O)[C@H](Cc2c[nH]c3ccccc23)NC(=O)[C@@H]2CCCN2C(=O)[C@H](Cc2ccccc2)NC(=O)[C@H](Cc2ccc(O)cc2)NC(=O)[C@H](CCCNC(=N)N)NC1=O` (H-GDFSHCSPLRYFPWFKCTYPDPEGGGKPARPAR-OH; disulfide 6-17) belongs “Active”; to `CC[C@H](C)[C@H](NC(=O)[C@H](Cc1ccccc1)NC(=O)[C@H](CCCCN)NC(=O)[C@H](CC(=O)O)NC(=O)CN)C(=O)N[C@H]1CSSC[C@@H](C(=O)N[C@@H](CC(N)=O)C(=O)N[C@@H](Cc2c[nH]c3ccccc23)C(=O)N[C@@H](Cc2ccc(O)cc2)C(=O)N[C@@H](CC(=O)O)C(=O)N2CCC[C@H]2C(=O)N[C@@H](CCC(=O)O)C(=O)NCC(=O)NCC(=O)NCC(=O)N[C@@H](CCCCN)C(=O)NCC(=O)N[C@@H](CC(N)=O)C(=O)N[C@@H](CCCNC(=N)N)C(=O)N2CCC[C@H]2C(=O)N2CCC[C@H]2C(=O)N[C@@H](CCCNC(=N)N)C(=O)O)NC(=O)[C@H](Cc2ccccc2)NC(=O)[C@H](CCCCN)NC(=O)[C@H](Cc2c[nH]c3ccccc23)NC(=O)[C@@H]2CCCN2C(=O)[C@H](CCCCN)NC(=O)[C@H](CC(=O)O)NC(=O)[C@H](CCCNC(=N)N)NC(=O)[C@H]([C@@H](C)CC)NC(=O)[C@@H]2CCCN2C(=O)[C@H](CC(C)C)NC1=O` (H-GDKFICLPIRDKPWKFCNWYDPEGGGKGNRPPR-OH; disulfide 6-17), “Active”; to `CC(C)C[C@@H]1NC(=O)[C@H](C)NC(=O)[C@H](CCCNC(=N)N)NC(=O)[C@@H](NC(=O)[C@@H]2CCCN2C(=O)[C@H](CO)NC(=O)[C@H](Cc2ccc(O)cc2)NC(=O)[C@H](CC(=O)O)NC(=O)CN)CSSC[C@@H](C(=O)N2CCC[C@H]2C(=O)N[C@@H](CO)C(=O)NCC(=O)N[C@@H](CC(=O)O)C(=O)N2CCC[C@H]2C(=O)N[C@@H](CCC(=O)O)C(=O)NCC(=O)NCC(=O)NCC(=O)N[C@@H](CCCNC(=N)N)C(=O)NCC(=O)N[C@@H](CCCNC(=N)N)C(=O)N[C@@H](CCCNC(=N)N)C(=O)N2CCC[C@H]2C(=O)N2CCC[C@H]2C(=O)N[C@@H](CCCNC(=N)N)C(=O)O)NC(=O)[C@H](CCCNC(=N)N)NC(=O)[C@H](Cc2c[nH]c3ccccc23)NC(=O)[C@H](Cc2c[nH]c3ccccc23)NC(=O)[C@@H]2CCCN2C(=O)[C@H](CO)NC(=O)[C@H](Cc2cnc[nH]2)NC(=O)[C@H](CCCNC(=N)N)NC1=O` (H-GDYSPCRALRHSPWWRCPSGDPEGGGRGRRPPR-OH; disulfide 6-17), “Active”.
